Key:
PAF-induced hypotension = experiment: Inhibition of the hypotensive effect induced by PAF in normotensive rats; format: in vivo, Male Sprague Dawley rats; conditions: i.v. through the femoral vein 3 min before PAF injection (0.5 mcg/kg, i.v.); anaesthetized rats
Procedure: Inhibition of the hypotensive effect induced by PAF in normotensive rats.
Male Sprague Dawley rats (b.w. 180-220 g) anaesthetized with sodium pentobarbital (50 mg/kg, i.p. 1mL/100 g) were used. In order to measure the arterial pressure, a polyethylene catheter was introduced into the carotid artery. The arterial pressure was recorded with the help of a transducer coupled to a R611 Beckman polygraph. The test compounds were administered through the femoral vein 3 min before PAF injection (0.5 mcg/kg, i.v.). Control animals received only the vehicle. […]

[1] = tested on: Platelet aggregation induced by PAF; experiment: Inhibition of platelet aggregation induced by PAF (Born nephelometric technique, platelet-rich plasma); format: cell-based, male New Zealand rabbits; conditions: rabbit platelet-rich plasma, platelet count 3x10⁵/mm³; PAF (C₁₈) 15 nM; read-out: IC₅₀
Procedure: Inhibition of platelet aggregation induced by PAF
Platelet-rich plasma (PRP) was prepared by centrifuging the blood at 250xg for 10 min at 4°C and then it was diluted with platelet-poor plasma (PPP) obtained by further centrifuging at 3000xg for 10 min. The platelet count was adjusted to 3x10⁵/mm³. […] The activities of the inhibitors were expressed as the IC₅₀ value, that is to say the concentration of the drug needed to inhibit platelet aggregation by 50%.

[2] = tested on: ear oedema induced by arachidonic acid; experiment: Rodent ear oedema induced by arachidonic acid; format: in vivo, Swiss, male mice; conditions: topical in acetone 30 min before irritant; 10% arachidonic acid, 2 mg/ear; read at 1 h; mouse ear
Procedure: (§1) Rodent ear oedema induced by application of several irritant agents
(§2) Groups of 8-10 Swiss, male mice, 6-8 weeks old, were used in the experiments. Animals had free access to food and water. Irritant dermatitis was elicited by painting both faces of the left ear of the mouse with 20 µL (10 µL each face) of the inflammatory agents. Concentrations (w/v) of the irritants were: 10% arachidonic acid and 0.01% TPA (12-O-tetradecanoylphorbol 13-acetate), both dissolved in acetone. Total applied doses were 2 and 0.002 mg/ear, respectively. Treatment was effected by application of a total of 20 µL of the test compound dissolved in acetone to both faces of the left ear of the mouse 30 min before the application of the irritant agent. Control animals received only the vehicle. At 1 h (arachidonic acid) and 6 h (TPA) after administration of the irritant, animals were killed by cervical dislocation. An 8 mm diameter punch biopsy was performed on each ear, the right (untreated) ear being the control for each animal. The swelling induced by the irritant was quantified as the percentage increase in the weight of the left ear biopsy over that of the right ear biopsy.

[3] = tested on: ear oedema induced by TPA (12-O-tetradecanoylphorbol 13-acetate); experiment: Rodent ear oedema induced by TPA; format: in vivo, Swiss, male mice; conditions: topical in acetone 30 min before irritant; 0.01% TPA, 0.002 mg/ear; read at 6 h; mouse ear
Procedure: as §1
as §2, with “This test was performed according to the method described by Young et al. (Pharmacological Methods in the Control of Inflammation., ed. Chang, J.Y. & Lewis, A.J. pp 215-231. New York: Alan R. Liss, 1989). Groups” for “Groups”, “biopsy. Percentage inhibition of oedema was calculated according to the following formula: [formula] Activity of the inhibitors was expressed as the ID₅₀ value, i.e. the amount of compound by weight of animal (dose) required to inhibit the increase in weight by 50%, with respect to control animals.” for “biopsy.”

Compound	IC50 [1] [nM]	ID₅₀ (PAF-induced hypotension) [mg/kg]	ID₅₀ Arachidonic acid [2]	ID₅₀ TPA [3]
CCC[n+]1cc(Br)cc(C(=O)N(CCOC(=O)NCCI)c2ccccc2)c1.[I-] [Compound 7]	2.1	<0.025	0.50 mg/ear	0.20 mg/ear
CCC[n+]1cc(Br)cc(C(=O)N(CCN2CCOC2=O)c2ccccc2)c1.[I-] [Compound 5, 5-Bromo-3-[N-[2-(2-oxo-1,3-oxazolidin-3-yl)ethyl-N-phenyl]carbamoyl]-1-propylpyridinium iodide]	36	0.16	≧1 mg/ear	0.68 mg/ear
CCC[n+]1cc(Br)cc(C(=O)N(CCNC(=O)c2ccc(C(F)(F)F)cc2)c2ccccc2)c1.[Cl-] [Compound 11]	–	0.022	–	–
Cl.O=C(NCCN(C(=O)c1cncc(Br)c1)c1ccccc1)c1cccc(OCc2ccc3ccccc3n2)c1 [Compound 15, 5-Bromo-3-[N-[2-[3-(2-quinolylmethoxy)phenyl]carbonylamino]ethyl-N-phenyl]carbamoylpyridinium chloride]	–	–	–	≦0.1 mg/ear
CCC[n+]1cc(Br)cc(C(=O)N(CCNC(=O)c2ccc(C(F)(F)F)cc2)c2ccccc2)c1.[I-] [Compound 10]	4.5	–	≈1 mg/ear	0.3-1 mg/ear
CCC[n+]1cc(Br)cc(C(=O)N(CCNC(=O)OCC)c2ccccc2)c1.[I-] [Compound 1, 5-Bromo-3-[N-(2₋ethoxycarbonylamino)ethyl-N-phenyl]carbamoyl-1-propylpyridinium iodide]	18	0.046	0.31 mg/ear	0.31 mg/ear
Cl.O=C(NCCN(C(=O)c1cncc(Br)c1)c1ccccc1)c1ccc(OCc2ccc3ccccc3n2)cc1 [Compound 17, 5-Bromo-3-[N-[2-[p-(2-quinolylmethoxy)phenyl]carbonylamino]ethyl-N-phenyl]carbamoylpyridinium chloride]	–	–	–	<0.1 mg/ear
CCC[n+]1cc(Br)cc(C(=O)N(CCNC(=O)OCC(F)(F)C(F)(F)F)c2ccccc2)c1.[I-] [Compound 8, 5-Bromo-3-[N-[2-(2,2,3,3,3-pentafluoropropoxy)carbonylamino]ethyl-N-phenyl]carbamoyl-1-propylpyridinium iodide]	4.2	–	≈1 mg/ear	0.3-1 mg/ear

More lines, main results first:

IC50 [1] [nM]	Compound	ID₅₀ (PAF-induced hypotension) [mg/kg]	ID₅₀ Arachidonic acid [2]	ID₅₀ TPA [3]
16	5-Bromo-3-[N-[2-(2-iodoethoxy)carbonylamino]ethyl-N-phenyl]carbamoyl-1-propylpyridinium chloride [Compound 4]	–	–	–
3.8	5-Bromo-3-[N-[2-(4-fluorobenzyloxy)carbonylamino]ethyl-N-phenyl]carbamoyl-1-propylpyridinium iodide [Compound 9]	0.079	≈1 mg/ear	0.3-1 mg/ear
23	CCC[n+]1cc(Br)cc(C(=O)N(CCNC(=O)c2ccc(C(F)(F)F)cc2)c2ccccc2)c1.[Cl-] [Compound 11, 5-Bromo-3-[N-[2-[(4-trifluoromethyl)phenyl]carbonylaminolethyl-N-phenyl]carbamoyl-1-propylpyridinium chloride]	–	–	–
4.2	5-Bromo-3-[N-(2-ethoxycarbonylamino)ethyl-N-phenyl]carbamoyl-1-propylpyridinium chloride [Compound 2]	0.039	–	–
52	Cl.O=C(Cc1ccc(OCc2ccc3ccccc3n2)cc1)NCCN(C(=O)c1cncc(Br)c1)c1ccccc1 [Compound 13, 5-Bromo-3-[N-[2-[p-(2-quinolylmethoxy)phenyl]acetylamino]ethyl-N-phenyl]carbamoylpyridinium chloride]	0.0065	>0.3 mg/ear	>0.1 mg/ear
10	5-Bromo-3-[N-[2-(2-iodoethoxy)carbonylamino]ethyl-N-phenyl]carbamoyl₋1-propylpyridinium iodide [Compound 3]	–	0.3-1 mg/ear	0.76 mg/ear

Source: patent EP0610943A1, “Pyridinium derivatives useful as PAF antagonists” (J. URIACH & CIA. S.A., priority 1993, dated 1994)
